# Source: US3976762A (priority 1974, dated 1976)
# Read-outs that look alike come from different tables or passages of the source.
# Conditions: mouse, in vivo; for Urine and Feces, percent of total injected radioactivity: iv
Substance,Localization / excretion of the complex (in words),"Urine and Feces, percent of total injected radioactivity (0 h)","Urine and Feces, percent of total injected radioactivity (0.5 h)","Urine and Feces, percent of total injected radioactivity (1 h)","Urine and Feces, percent of total injected radioactivity (2 h)","Urine and Feces, percent of total injected radioactivity (4 h)","Urine and Feces, percent of total injected radioactivity (24 h)"
Tc-99m-1-aminobutylphosphonic acid,rapidly excreted via the kidney,0.0,74.2,85.0,90.7,86.6,
"Tc-99m-1,5-diaminopentylphosphonic acid",high uptake of the complex by the kidney without rapid excretion,0.0,47.3,55.0,61.3,,83.2
